Patent US20040192641A1, “Special preparation of anticancer drugs made by novel nanotechnology” (priority 2003, published 2004)

What was measured:
[1] = tested on: stem cells of bone marrow; test: Hemopoietic system: CFU-S in mice treated with cyclophosphamide; assay type: in vivo; conditions: mice treated with CY with or without PK
Excerpt: Effects of PK on hemopoietic system were investigated.

[2] = tested on: peritoneal macrophage; test: Phagocytosis of peritoneal macrophage (chick red blood cells); assay type: in vivo, mice; conditions: macrophages with phagocytized chick red blood cells per 100; PK 25 mg/kg i.p. daily 5 days, CY 4.5 mg/kg
Method: (§1) Male mice weight 18-20 g were used in the experiments and were divided into treated (PK) and control groups. The dosage of PK was 25 mg/kg injected intraperitoneally. The control mice were injected with same volume of normal saline. These injections were repeated daily for 5 days, both treated and control group were injected intraperitoneally with CY. The dosage of CY is 4.5 mg/kg.
Added 0.02 ml of 5% washed chick red blood cell suspension to 0.5 ml of the peritoneal exudates. Shook gently to mix and incubate at 37° C. for 5 minutes. Dipped two cover slips, closed to each other, in the above mixture and incubated for 30 minutes for the migration of the macrophages along the cover slips, fixed and stained with Sharma stain. Examined microscopically for:
Phagocytic rate—number of macrophages with phagocytized chick red blood cells per 100 macrophages counted. Concentration of PK and CY is the same as Example 2. Pharmacological effects are as illustrated by the following table.

[3] = tested on: white blood cells; test: White blood cells assay; assay type: in vivo, mice; conditions: time of treatment 10 days
Method: as §1
Action of PK and CY on white blood cells was investigated by means of white blood cells assay. PK protected white blood cells and phagocytosis from the killing effect of CY. The dosage of PK and CY is the same as in Example 4. Time of treatment is 10 days.

[4] = tested on: lymphocytes; test: Lymphoblastic transformation, 3H-TdR liquid scintillation assay; assay type: in vivo, mice; conditions: 3H-TdR incorporation; PK and CY as in Example 4
Method: By means of ^3H-TdR liquid scintillation assay technique, the action of PK on lymphoblastic transformation was investigated method:
(1) Experimental procedure of animal is the same as in Example 4.
(2) Lemphoblastic transformation test:
I. Reagents and Conditions for Cell Culture
a. Culture media—RPMI 1640, medium 199 minimal essential medium (Eagle).
b. Buffer—Hepes buffer, the final concentration at 37° C. was 25 mM, to maintain the pH of the medium at 7.31.
c. Serum—generally 15-205 fetal bovine serum was incorporated, for lymphocytes from mice, 5% was used.
d. Gaseous phase—5% CO2 in air.
e. Cell concentration—generally 1-2 c 10^6/ml.
f. Stimulants—20 μl/ml for phytohemagglutinin containing polysaccharide (PHA-M) or 10 μl/ml for polysaccharide-free purified phytohemagglutinin (PHA-P).
II. Measured by Liquid Scintillation
a. The conditions of cell culture are same as above. ^3H-TdR was added after 48 hours of incubation at a final concentration of 1 μCi/ml and continued the incubation for 24 hours.
b. Washed the cells twice with cold normal saline and the erythrocytes were lysed. The intact lymphocytes were again washed once with cold saline. Spun down the lymphocytes and added 2 ml of 10% trichloroacetic acid to precipitate the protein. Washed twice with normal saline. […]
c. Added 4 ml of scintillation fluid to 0.1 ml of the final sample and counted in a liquid scintillation counter. […]

[5] = tested on: Interleukin-2 (rIL-2); test: Effect on Interleukin-2; assay type: in vivo, mice; conditions: PK and CY as in Example 4
Excerpt: The method of determination rIL-2 was as same as Example 4.

[6] = Radiolabelled nanoparticle experiment: circulation of 3H-HHT in blood; assay type: in vivo, mice
Method: Mice were used in this experiment. […]
After injection of radioactive ^3H-HHT or PK-^3H-HHT-NP, blood-associated radioactivity was determined.
1 ml of sample of blood was ultracentrifuged at 100,000×g for 1 hour. After discarding the supernatant, the sediment was dispersed again by mechanical stirring in 1.5 ml of distilled water. 100 μl of the sediment or supernatant were then added to 10 ml of scintillation liquid solution. After weighing, the radioactivity of the tissue samples was measured by a scintillation counter.

SMILES	Mean (CFU-S ± SD) [1]	Phagocytic (rate ± SD) [2]	Phagocytic (rate ± SD) [3]	CPM ± SD [4]	IL-2 (U/ml) [5]	Circulation 3H-HHT in blood ([6]; 1 hour after administration)	Circulation 3H-HHT in blood ([6]; 8 hours after administration)	Circulation 3H-HHT in blood ([6]; 24 hours after administration)
O=P1(N(CCCl)CCCl)NCCCO1 (centres unmarked) [CY, cyclophosphamide]	7.6 ± 1.1	8.5 ± 0.90	6.0 ± 0.70	600 ± 65 CPM	47.5 ± 5.5 U/ml	–	–	–
COC(=O)C[C@](O)(CCCC(C)(C)O)C(=O)O[C@@H]1C(OC)=C[C@]23CCCN2CCc2cc4c(cc2[C@H]13)OCO4 [^3H-HHT (free)]	–	–	–	–	–	2400 cpm	90 cpm	60 cpm
